ChEMBL document CHEMBL1201862, “PubChem BioAssay data set” (2004)
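Test compounds were applied to cells in 96-well plates for 48 hours at 5 doses. GI50 marks 50% less growth.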 Calls of active or inactive are those of the source. Cut-off read from the data, not from the text of the source: active = GI50 up to about 1.1 µM and inactive = higher.

Columns and labels:
Experiment in all cases: NCI-60 cell line screen, 48 h
[1] = test system: MOLT-4
[2] = test system: RPMI-8226
[3] = test system: TK-10
[4] = test system: MDA-MB-231
[5] = test system: A498
[6] = test system: CAKI-1
[7] = test system: SK-MEL-28
[8] = test system: Malme-3M
[9] = test system: NCI-H460
[10] = test system: HT-29
[11] = test system: ACHN
[12] = test system: IGROV-1
[13] = test system: MCF7
[14] = test system: SK-OV-3

Measured: GI50

CCOP(=O)(O)C1C(CO)OC(n2ccc(=O)[nH]c2=O)C1O (stereo not given)
inactive: [1] > 100 µM | [2] > 100 µM | [3] > 100 µM | [4] > 100 µM | [5] > 100 µM | [6] > 100 µM | [7] > 100 µM | [8] > 100 µM | [9] > 100 µM | [10] > 100 µM | [11] > 100 µM | [12] > 100 µM

CCOC(=O)c1csc(NC(=O)CN2CCOCC2)n1
inactive: [1] 17.1 µM | [2] > 100 µM | [3] > 100 µM | [4] > 100 µM | [5] > 100 µM | [6] > 100 µM | [7] > 100 µM | [13] > 100 µM | [9] > 100 µM | [10] > 100 µM | [14] > 100 µM | [11] > 100 µM | [12] > 100 µM

COC(=O)C12CCCN1CCC2
inactive: [1] > 100 µM | [3] > 100 µM | [4] > 100 µM | [6] > 100 µM | [7] > 100 µM | [8] > 100 µM | [13] > 100 µM | [9] > 100 µM | [10] > 100 µM | [14] > 100 µM | [11] > 100 µM

COc1ccc(/N=C2/C(=N/c3ccc(OC)cc3)N(c3ccccc3)C(=S)N2N=C=C2Sc3ccccc3N2C)cc1
inactive: [1] > 100 µM | [2] > 100 µM | [3] 32.1 µM | [4] 25.5 µM | [6] > 100 µM | [7] > 100 µM | [8] > 100 µM | [13] > 100 µM | [9] > 100 µM | [10] > 100 µM | [14] > 100 µM | [11] > 100 µM | [12] > 100 µM

Cc1c(OCc2cccc3ccccc23)ccc2c(=O)cc(SCCN3CCOCC3)oc12
inactive: [1] > 100 µM | [3] > 100 µM | [4] > 100 µM | [5] > 100 µM | [6] > 100 µM | [7] > 100 µM | [13] > 100 µM | [9] 6.53 µM | [10] > 100 µM | [11] > 100 µM | [12] > 100 µM

O=C1NC(N2CCOCC2)=N/C1=C\c1ccc(O)cc1
inactive: [1] > 100 µM | [2] > 100 µM | [3] > 100 µM | [4] > 100 µM | [6] > 100 µM | [7] > 100 µM | [8] > 100 µM | [13] > 100 µM | [10] > 100 µM | [14] > 100 µM | [11] > 100 µM | [12] > 100 µM

O=C(O)C1C(=O)Oc2c(cccc2[N+](=O)[O-])C1O (stereo not given)
inactive: [1] > 100 µM | [2] > 100 µM | [3] > 100 µM | [4] > 100 µM | [5] > 100 µM | [6] > 100 µM | [7] > 100 µM | [8] > 100 µM | [9] > 100 µM | [10] > 100 µM | [11] > 100 µM | [12] > 100 µM

Cn1c(=O)c2c(nc(Nc3ccc(Cl)cc3)n3c(=O)n(-c4ccccc4)c(=O)n23)n(C)c1=O
inactive: [1] > 100 µM | [2] > 100 µM | [3] > 100 µM | [4] > 100 µM | [5] > 100 µM | [6] > 100 µM | [7] > 100 µM | [13] > 100 µM | [9] > 100 µM | [10] > 100 µM | [11] > 100 µM | [12] > 100 µM

O=c1[nH]c(=O)n(COCc2ccccc2)c2ccccc12
inactive: [1] 44.4 µM | [3] 51.5 µM | [4] 49.2 µM | [5] > 100 µM | [6] 62.7 µM | [7] 91.4 µM | [13] 38 µM | [9] 40.9 µM | [10] 31.9 µM | [14] 89.9 µM | [11] 32.1 µM | [12] 18.4 µM

CCCSc1ccc2[nH]c(N3C(=O)/C(=C/c4ccccc4)N=C3c3ccccc3)cc2c1
inactive: [1] 16.3 µM | [2] 12.4 µM | [5] 27 µM | [6] 27.2 µM | [7] 32.4 µM | [8] 24.2 µM | [13] 24.4 µM | [10] 16.7 µM | [11] 39.2 µM | [12] 31.9 µM

CCCCCCc1cc2cc(C(=O)Nc3ccc(F)cc3)c(=N)oc2cc1O
inactive: [1] 1.93 µM | [2] 1.17 µM | [5] 5.05 µM | [6] 3.09 µM | [7] 3.27 µM | [8] 2.32 µM | [13] 3.09 µM | [9] 3.51 µM | [10] 28 µM | [14] 2.58 µM | [11] 2.89 µM | [12] 1.49 µM
